# Test results: US20050256037A1, “Antibacterial amide macrocyles” (Bayer HealthCare AG, priority 2003, published 2005)
# Structures can show the parent of a compound that is named as a salt.
# Legend:
# E. faecium L4001 [1] = assay: MIC, liquid dilution test in minimal medium (96-well microtitre plate); assay type: cell-based; conditions: Enterococcus faecium, L4001, read-out: MIC E. faecium L4001
# Protocol: (§1) Determination of the Minimum Inhibitory Concentration (MIC)
# (§2) The minimum inhibitory concentration (MIC) is the minimum concentration of an antibiotic with which the growth of a test microbe is inhibited over 18-24 h. The inhibitor concentration can in these cases be determined by standard microbiological methods (see, for example, The National Committee for Clinical Laboratory Standards. Methods for dilution antimicrobial susceptibility tests for bacteria that grow aerobically; approved standard-fifth edition. NCCLS document M7-A5 [ISBN 1-56238-394-9]. NCCLS, 940 West Valley Road, Suite 1400, Wayne, Pa. 19087-1898 USA, 2000). The MIC of the compounds of the invention is determined in the liquid dilution test on the 96-well microtitre plate scale. The bacterial microbes are cultivated in a minimal medium (18.5 mM Na2HPO4, 5.7 mM KH2PO4, 9.3 mM NH4Cl, 2.8 mM MgSO4, 17.1 mM NaCl, 0.033 μg/ml thiamine hydrochloride, 1.2 μg/ml nicotinic acid, 0.003 μg/ml biotin, 1% glucose, 25 μg/ml of each proteinogenic amino acid with the exception of phenylalanine; [H.-P. Kroll; unpublished]) with addition of 0.4% BH broth (test medium). In the case of Enterococcus faecium L4001, heat-inactivated fetal calf serum (FCS; GibcoBRL, Germany) is added to the test medium in a final concentration of 10%. Overnight cultures of the test microbes are diluted to an OD578 of 0.001 (to 0.01 in the case of enterococci) in fresh test medium, and incubated 1:1 with dilutions of the test substances (1:2 dilution steps) in test medium (200 μl final volume). The cultures are incubated at 37° C. for 18-24 hours; enterococci in the presence of 5% CO2.
# (§3) The lowest substance concentration in each case at which bacterial growth was no longer visible is defined as the MIC. […] The compounds show a graded antibacterial effect against most of the test microbes.
# S. aureus E33 [2] = assay: as above; assay type: cell-based; conditions: Staphylococcus aureus, E33, read-out: MIC S. aureus E33
# Protocol: as §1, §2, §3
# S. aureus T17 [3] = assay: as above; assay type: cell-based
# Protocol: as §1, §2, §3
# The S. aureus strain T17 is isolated in vivo. CFW1 mice are infected intraperitoneally with 4×10^7 S. aureus 133 cells per mouse. 0.5 h after the infection, the animals are treated intravenously with 50 mg/kg biphenomycin B. The kidneys are removed from the surviving animals on day 3 after the infection. After homogenization of the organs, the homogenates are plated out as described for RN4220Bi^R on antibiotic-free and antibiotic-containing agar plates and incubated at 37° C. overnight. […] About 20 of these colonies are tested for the biphenomycin B MIC, and a colony with an MIC of >50 μM is selected for further cultivation, and the strain is referred to a T17.
# [4] = target: S. aureus 133 Translation; assay: S. aureus in vitro transcription-translation assay (S30 extract, firefly luciferase reporter); assay type: biochemical
# Description: In vitro Transcription-Translation with S. aureus Extracts
# Construction of an S. aureus Luciferase Reporter Plasmid
# A reporter plasmid which can be used in an in vitro transcription-translation assay from S. aureus is constructed by using the plasmid pBESTluc (Promega Corporation, USA). The E. coli tac promoter present in this plasmid in front of the firefly luciferase is replaced by the capA1 promoter with appropriate Shine-Dalgarno sequence from S. aureus. The primers CAPFor 5′-CGGCCAAGCTTACTCGGAT-[…] […]-3′ and CAPRev 5′-[…]-3′ are used for this. The primer CAPFor contains the capA1 promoter, the ribosome binding site and the 5′ region of the luciferase gene. After PCR using pBESTluc as template it is possible to isolate a PCR product which contains the firefly luciferase gene with the fused capA1 promoter. This is, after restriction with ClaI and HindIII, ligated into the vector pBESTluc which has likewise been digested with ClaI and HindIII. The resulting plasmid pla is able to replicate in E. coli and be used as template in the S. aureus in vitro transcription-traslation assay.
# Preparation of S30 Extracts from S. aureus
# Six litres of BHI medium are inoculated with a 250 ml overnight culture of an S. aureus strain and allowed to grow at 37° C. until the OD600 run is 2-4. The cells are harvested by centrifugation and washed in 500 ml of cold buffer A (10 mM Tris acetate, pH 8.0, 14 mM Magnesium acetate, 1 mM DTT, 1 M KCl). After renewed centrifugation, the cells are washed in 250 ml of cold buffer A with 50 mM KCl, and the resulting pellets are frozen at −20° C. for 60 min. The pellets are thawed on ice in 30 to 60 min and taken up to a total volume of 99 ml in buffer B (10 mM Tris acetate, pH 8.0, 20 mM Magnesium acetate, 1 mM DTT, 50.mM KCl). 1.5 ml portions of lysostaphin (0.8 mg/ml) in buffer B are introduced into 3 precooled centrifuge cups and each mixed with 33 ml of the cell suspension. The samples are incubated at 37° C., shaking occasionally, for 45 to 60 min, before 150 μl of a 0.5 M DTT solution are added. The lysed cells are centrifuged at 30 000×g and 4° C. for 30 min. The cell pellet is taken up in buffer B and then centrifuged again under the same conditions, and the collected supernatants are combined. The supernatants are centrifuged again under the same conditions, and 0.25 volume of buffer C (670 mM Tris acetate, pH 8.0, 20 mM Magnesium acetate, 7 mM Na3 phosphoenolpyruvate, 7 mM DTT, 5.5 mM ATP, 70 μM amino acids (complete from Promega), 75 μg of pyruvate kinase (Sigma, Germany)/ml are added to the upper ⅔ of the supernatant. The samples are incubated at 37° C. for 30 min. The supernatants are dialysed against 2 l of dialysis buffer (10 mM Tris acetate, pH 8.0, 14 mM Magnesium acetate, 1 mM DTT, 60 mM Potassium acetate) in a dialysis tube with a 3500 Da cut-off with one buffer change at 4° C. overnight. The dialysate is concentrated to a protein concentration of about 10 mg/ml by covering the dialysis tube with cold PEG 8000 powder (Sigma, Germany) at 4° C. The S30 extracts can be stored in aliquots at −70° C.
# Determination of the IC50 in the S. aureus in vitro Transcription-Translation Assay Inhibition of protein biosynthesis of the compounds can be shown in an in vitro transcription-translation assay. The assay is based on the cell-free transcription and translation of firefly luciferase using the reporter plasmid pla as template and cell-free S30 extracts obtained from S. aureus. The activity of the resulting luciferase can be detected by luminescence measurement.
# The amount of S30 extract or plasmid pla to be employed must be tested anew for each preparation in order to ensure an optimal concentration in the assay. 3 μl of the substance to be tested, dissolved in 5% DMSO, are introduced into an MTP. Then 10 μl of a suitably concentrated plasmid solution pla are added. […]
# S. aureus 133 = assay: Systemic infection with S. aureus 133 (mouse sepsis model); assay type: in vivo; conditions: female CFW1 mice, i.p. infection, i.v. therapy 30 minutes after infection, survival recorded for 6 days
# Protocol: Systemic Infection with S. aureus 133
# For this purpose, S. aureus 133 cells are cultured overnight in BH broth (Oxoid, Germany). The overnight culture was diluted 1:100 in fresh BH broth and expanded for 3 hours. The bacteria which are in the logarithmic phase of growth are centrifuged and washed twice with buffered physiological saline solution. A cell suspension in saline solution with an extinction of 50 units is then adjusted in a photometer (Dr Lange LP 2W). After a dilution step (1:15), this suspension is mixed 1:1 with a 10% strength mucine suspension. 0.2 ml of this infection solution is administered i.p. per 20 g of mouse. This corresponds to a cell count of about 1-2×10 microbes/mouse. The i.v. therapy takes place 30 minutes after the infection. Female CFW1 mice are used for the infection test. The survival of the animals is recorded for 6 days. The animal model is adjusted so that untreated animals die within 24 h after the infection.
# E. faecium L4001 [5] = assay: MIC, alternative method: agar dilution test with 20% defibrinated horse blood; assay type: cell-based; conditions: Enterococcus faecium
# Protocol: (§4) Alternative Method for Determining the Minimum Inhibitory Concentration (MIC)
# (§5) The minimum inhibitory concentration (MIC) is the minimum concentration of an antibiotic with which the growth of a test microbe is inhibited over 18-24 h. The inhibitor concentration can be determined by standard microbiological methods using modified medium in an agar dilution test (see, for example, the National Committee for Clinical Laboratory Standards. Methods for dilution antimicrobial susceptibility tests for bacteria that grow aerobically; approved standard-fifth edition. NCCLS document M7-A5 [ISBN 1-56238-394-9]. NCCLS, 940 West Valley Road, Suite 1400, Wayne, Pa. 19087-1898 USA, 2000). The bacterial microbes are cultivated on 1.5% agar plates containing 20% defibrinated horse blood. The test microbes, which are incubated on Columbia blood agar plates (Becton-Dickinson) overnight, are diluted in PBS, adjusted to a microbe count of about 5×10^5 microbes/ml and placed as drops (1-3 μl) on test plates. The test substances contain various dilutions of the test substances (1:2 dilution stages). The cultures are incubated at 37° C. in the presence of 5% CO2 for 18-24 hours.
# (§6) The lowest concentration of each substance at which no visible bacterial growth occurs is defined as the MIC and is reported in μg/ml.
# S. aureus E33 [6] = assay: as above; assay type: cell-based; conditions: Staphylococcus aureus
# Protocol: as §4, §5, §6
# S. aureus T17 [7] = assay: as above; assay type: cell-based; conditions: Staphylococcus aureus
# Protocol: as §4, §5, §6
# S. aureus RN4220Bi^R = assay: MIC of the isolated resistant colony; assay type: cell-based; conditions: colony selected as strain RN4220Bi^R
# Protocol: The S. aureus strain RN4220Bi^R is isolated in vitro. […] Whereas about 1×10^7 cells grow on the antibiotic-free plate, about 100 colonies grow on the antibiotic-containing plate, corresponding to a resistance rate of 1×10^−5. Some of the colonies grown on the antibiotic-containing plate are tested for the biphenomycin B MIC. One colony with an MIC of >50 μM is selected for further use, and the strain is referred to as RN4220Bi^R.
# [8] = Staphylococcus aureus, T17, read-out: MIC S. aureus T17
# [9] = L4001, read-out: MIC E. faecium L4001
# [10] = E33, read-out: MIC S. aureus E33
# [11] = T17, read-out: MIC S. aureus T17
# [12] = L4001, Table B, agar dilution, 20% defibrinated horse blood, read-out: MIC E. faecium L4001
# [13] = E33, Table B, agar dilution, 20% defibrinated horse blood, read-out: MIC S. aureus E33
# [14] = T17, Table B, agar dilution, 20% defibrinated horse blood, read-out: MIC S. aureus T17
Compound,MIC (E. faecium L4001 [1]) [µM],MIC (S. aureus E33 [2]) [µM],MIC (S. aureus T17 [3]; [8]) [µM],IC50 ([4]; Table A) [nM],IC50 ([4]; Table B) [nM],MIC (E. faecium L4001 [5]; [9]) [µg/mL],MIC (S. aureus E33 [6]; [10]) [µg/mL],MIC (S. aureus T17 [7]; [11]) [µg/mL],MIC (E. faecium L4001 [5]; [12]) [µg/mL],MIC (S. aureus E33 [6]; [13]) [µg/mL],MIC (S. aureus T17 [7]; [14]) [µg/mL],further results
"CN1C(=O)[C@H](C[C@@H](O)CN)NC(=O)[C@@H](N)Cc2cc(ccc2O)-c2ccc(O)c(c2)C[C@H]1C(=O)NC1CCNCC1 [Example 2, (8S,11S,14S)-14-Amino-11-[(2R)-3-amino-2-hydroxypropyl]-5,17-dihydroxy-9-methyl-10,13-dioxo-N-piperidin-4-yl-9,12-diazatricyclo[14.3.1.1^2,6]henicosa-1(20),2(21),3,5,16,18-hexaene-8-carboxamide trihydrochloride]",25,1.6,6.3,200,,,,,,,,therapeutic effect ED100 (S. aureus 133): 1.25 mg/kg
"CN1C(=O)[C@H](CCCN)NC(=O)[C@@H](N)Cc2cc(ccc2O)-c2ccc(O)c(c2)C[C@H]1C(=O)NCCN [Example 3, (8S,11S,14S)-14-Amino-N-(2-aminoethyl)-11-(3-aminopropyl)-5,17-dihydroxy-9-methyl-10,13-dioxo-9,12-diazatricyclo[14.3.1.1^2,6]henicosa-1(20),2(21),3,5,16,18-hexaene-8-carboxamide trihydrochloride]",25,1.6,3.1,350,350,16,2,4,,,,
"NCCCNCCCNC(=O)[C@@H]1Cc2cc(ccc2O)-c2ccc(O)c(c2)C[C@H](N)C(=O)N[C@@H](CCCN)C(=O)N1 [Example 42, (8S,11S,14S)-14-amino-11-(3-aminopropyl)-N-{3-[(3-aminopropyl)amino]propyl}-5,17-dihydroxy-10,13-dioxo-9,12-diazatricyclo[14.3.1.1^2,6]henicosa-1(20),2(21),3,5,16,18-hexaene-8-carboxamide]",,,,,400,,,,4,1,2,
"NCCC[C@@H]1NC(=O)[C@@H](N)Cc2cc(ccc2O)-c2ccc(O)c(c2)C[C@@H](C(=O)NCCN(CCN)CCN)NC1=O [Example 43, (8S,11S,14S)-14-amino-11-(3-aminopropyl)-N-{2-[bis(2-aminoethyl)amino]ethyl}-5,17-dihydroxy-10,13-dioxo-9,12-diazatricyclo[14.3.1.1^2,6]henicosa-1(20),2(21),3,5,16,18-hexaene-8-carboxamide]",,,,,150,,,,16,1,2,
"NCCC[C@H](N)CNC(=O)[C@@H]1Cc2cc(ccc2O)-c2ccc(O)c(c2)C[C@H](N)C(=O)N[C@@H](CCCN)C(=O)N1 [Example 45, (8S,11S,14S)-14-amino-11-(3-aminopropyl)-N-[(2S)-2,5-diaminopentyl]-5,17-dihydroxy-10,13-dioxo-9,12-diazatricyclo[14.3.1.1 ^2,6]henicosa-1(20),2(21),3,5,16,18,-hexaene-8-carboxamide]",,,,,100,2,0.5,2,,,,
"NC[C@H](O)C[C@@H]1NC(=O)[C@@H](N)Cc2cc(ccc2O)-c2ccc(O)c(c2)C[C@@H](C(=O)O)NC1=O [biphenomycin B, reference compound]",,,,,,,,,,,,"MIC (S. aureus T17 [3]; colony selected as strain T17, isolated from kidney of treated mice): > 50 µM; MIC (S. aureus RN4220Bi^R): > 50 µM"
